Data taken from paper PMC12648443, “Modifications of NU-9, a potent protein aggregation inhibitor. Properties and activity in a cellular model of amyotrophic lateral sclerosis” (Bioorganic chemistry, 2025).

Legend:
HepG2 cells = experiment: In vitro cytotoxicity, CellTiter-Glo, HepG2; assay type: cell-based; conditions: cytotoxicity EC50 (HepG2, HEK293) versus PC12-SOD1^G85R EC50
Experimental: (§1) The HepG2 and HEK293 cells were cultured in DMEM media supplemented with 10 % FBS (heat-inactivated), 1 % Pen-strep, and L-glutamine and incubated at 37 °C in humidified air with 5 % CO2 until 85–90 % confluency. The PC12 Tet-Off-SOD1^G85R YFP cells were maintained as described in 4.2. On the day before the experiments, the cells were transferred to white bottom 96 well plates (Greiner cat. 655,083) at a concentration of 50,000 cells/100 μL of media in each well and incubated overnight at 37 °C. Stock solutions of the compounds (30 mM) in DMSO were prepared and then diluted in media to obtain the six final working solutions starting at 30 μM, and serial dilutions were obtained with the lowest concentration at 0.25 μM. The media were removed and fresh media containing the compounds or the vehicle DMSO (0.1 % v/v) were transferred to the plates containing HepG2 and HEK293 cells and the plates were incubated for 24 or 48 h at 37 °C. The PC12 Tet-Off-SOD1^G85R YFP cells compound treatment was performed as described in section 4.2 and using a 9-point 2-fold serial dilution of the compounds starting at 15 μM and the lowest concentration at 0.05 μM. After incubation, the plates were cooled to room temperature and 25 μL of CellTiter-Glo® solution was added to each well. The plates were loaded into a BioTek Synergy H1 MD plate reader and shaken for 2 min, stabilized for 10 min without shaking, and then the luminescence values were read for each well (luminescence integration step 1 ms). Wells containing media with the vehicle DMSO with or without cells were used as controls to represent, respectively, the maximum viability and the lowest viability (background signal) for the cytotoxicity studies with HepG2 and HEK293 cell lines. The viability values for the assay performed with the PC12 Tet-Off-SOD1^G85R YFP cells were normalised for the vehicle (0.1 % DMSO) and (−)-MG-132 alone treatments, which represented respectively the […] viability for the assay.
(§2) The results are presented as an average of three independent experiments, each performed in triplicate, for the cytotoxicity experiments performed with HepG2 and HEK293 cells. The results for the protective screening with the PC12 Tet-Off-SOD1^G85R YFP cells are presented as an average of four replicates.

[1] = In vitro cytotoxicity, CellTiter-Glo, HepG2; assay type: cell-based; conditions: human, HepG2 cells; for viability at 24 h, 30 μM / viability at 48 h, 30 μM: relative to untreated cells, read-out: Percentage of viable cells observed at 30 μM treatment, HepG2; for EC50 at 24 h / EC50 at 48 h: cytotoxicity
Experimental: as §1, §2

[2] = In vitro cytotoxicity, CellTiter-Glo, HEK293; assay type: cell-based; conditions: human, HEK293 cells; for viability at 24 h, 30 μM / viability at 48 h, 30 μM: relative to untreated cells, read-out: Percentage of viable cells observed at 30 μM treatment, HEK293; for EC50 at 24 h / EC50 at 48 h: cytotoxicity
Experimental: as §1, §2

[3] = Parallel artificial membrane permeability assay - blood brain barrier (PAMPA-BBB); conditions: for Log Pe: PAMPA-BBB, High permeability LogPe > −5.33, No permeability LogPe < −6.14; for Papp at 18 h, 250 μM: pig, PAMPA, pH 7.5
Experimental: A solution of 1 × PBS (pH 7.5) was initially prepared by the dilution of a commercially available 10 × PBS solution. […] A solution of porcine brain lipid (PBL) (20 mg/mL in dodecane) was prepared, and 4 μL of this solution was used to coat the filters on the bottom of the PAMPA donor plates (Sigma Aldrich #MAIPNTR10). After air drying for 20 min, the donor plate wells were charged with 250 μL of the solutions of the test compounds or the controls. The donor plate was then placed over the acceptor plate (Sigma Aldrich #MATRNPS50), in which wells were previously filled with 1 × PBS (2 % DMSO v/v) solution. The PAMPA sandwich was closed with parafilm and incubated at 25 °C for 18 h in a humidity-saturated atmosphere with orbital agitation. […] The UV spectra (250–400 nm) of each well were acquired on a BioTek Synergy H1 MD plate reader equipped with a monochromator at room temperature.
CA(t) is the concentration of the compounds at the final time of incubation on the acceptor well; CD(0) and CD(t) are the concentration of the compounds at the initial time of incubation and at the final time of incubation on the donor well, respectively.

P-gp = target: T1, P-gp (Homo sapiens, UniProt P08183); experiment: MDCK-MDR1 bidirectional permeability / efflux assay; assay type: in vitro ADME; conditions: MDCK-MDR1; for Papp A→B at 120 min / Papp B→A at 120 min / efflux ratio at 120 min: dog
T1 construct: host or cells: MDCK-MDR1 (Madin Darby canine kidney cells carrying the MDR1 gene)
Experimental: The assay was carried out at Sai Life Sciences. Stock solutions of 6, 20, assay controls loperamide, atenolol, and propanolol (4 and 20 mM), and P-gp inhibitor zosuquidar (10 mM) were prepared in DMSO. Then the stock solutions from each test compound were diluted in HBSS buffer containing 10 mM HEPES to obtain the assay working solutions without the P-gp inhibitor at 2 and 10 μM (0.1 % DMSO v/v). Into working solutions containing zosuquidar (5 μM) were individually diluted 6, 20, and loperamide to obtain working solutions containing the test compounds at 2 or 10 μM and zosuquidar at 5 μM.
The MDCK-MDR1 (Madin Darby canine kidney - Multidrug Resistance gene-1) cells were cultured in DMEM media supplemented with 10 % FBS and antibiotics. For transport studies, cells were seeded into PET trans filter membranes (Millipore #PSRP010R5; 1.0 μm pore size) at a density of 1.2 × 10^5 cells/well and colchicine was added to the flasks and plates according to their volume. After 24 h, the media were replaced by fresh media and then changed every 2 days over 8 days. The media were removed from the wells of the basal and apical compartments of the plates, and a solution of HBSS with or without zosuquidar (5 μM) was added to the apical (400 μL) and basal (800 μL) sides of the plates. The plates were pre-incubated at 37 °C for 30 min in humidified air with 5 % CO2. The TTER (Transepithelial-Transendothelial Electrical Resistance) value for each well was recorded (assay TEER >83 Ω.cm^2). The buffer was removed from both compartments, and for the apical to basal direction transport determination, the apical compartment was loaded with 400 μL of the working solutions of the tested compounds or controls (2 or 10 μM) in the presence or absence of zosuquidar (5 μM), and the basal compartment was loaded with 800 μL of HBSS (0.1 % DMSO v/v). For the basal to apical direction transport determination, the compartments were loaded in their reverse order. The assay was performed in duplicate for the two transport directions [apical to basolateral (A → B) and basolateral to apical (B → A)]. After 120 min, 100 μL samples from both the apical and basal sides of the plate were transferred to new 96-deep well plates, quenched with acetonitrile containing an internal standard, vortexed for 5 min, and then centrifuged at 4000 rpm for 10 min. The same procedure was used to prepare a 96-deep well plate containing non-assayed working solutions (t = 0 concentrations). After centrifugation, 100 μL of the supernatant of each well was transferred to a new 96-well plate, and the samples were analyzed by LC-MS/MS.
For each experiment, the apparent permeability (Papp) for each direction and the efflux ratio (ER) were determined by the equations: Papp(cm/s)=(dQ/dt)/A×Co
where dQ/dt is the rate of permeation of the tested compounds across the (0 and 120 min) after correcting for dilution; A is the area of the filter (0.7 cm^2); Co is the initial concentration of the compounds on the donor compartment.
Where P(B→A) is the apparent permeability of the compounds from the basal to the apical direction and P(A→B) is the apparent permeability from the apical to basal direction. Lucifer Yellow was used as a control of the assay to evaluate monolayer integrity after incubation with the working solutions of the compounds, and the results were validated if the permeability of Lucifer Yellow from the apical to the basal side after 1-h incubation was kept <2 %. The results are presented as an average of two independent experiments.

T1 sequence (P08183 whole entry): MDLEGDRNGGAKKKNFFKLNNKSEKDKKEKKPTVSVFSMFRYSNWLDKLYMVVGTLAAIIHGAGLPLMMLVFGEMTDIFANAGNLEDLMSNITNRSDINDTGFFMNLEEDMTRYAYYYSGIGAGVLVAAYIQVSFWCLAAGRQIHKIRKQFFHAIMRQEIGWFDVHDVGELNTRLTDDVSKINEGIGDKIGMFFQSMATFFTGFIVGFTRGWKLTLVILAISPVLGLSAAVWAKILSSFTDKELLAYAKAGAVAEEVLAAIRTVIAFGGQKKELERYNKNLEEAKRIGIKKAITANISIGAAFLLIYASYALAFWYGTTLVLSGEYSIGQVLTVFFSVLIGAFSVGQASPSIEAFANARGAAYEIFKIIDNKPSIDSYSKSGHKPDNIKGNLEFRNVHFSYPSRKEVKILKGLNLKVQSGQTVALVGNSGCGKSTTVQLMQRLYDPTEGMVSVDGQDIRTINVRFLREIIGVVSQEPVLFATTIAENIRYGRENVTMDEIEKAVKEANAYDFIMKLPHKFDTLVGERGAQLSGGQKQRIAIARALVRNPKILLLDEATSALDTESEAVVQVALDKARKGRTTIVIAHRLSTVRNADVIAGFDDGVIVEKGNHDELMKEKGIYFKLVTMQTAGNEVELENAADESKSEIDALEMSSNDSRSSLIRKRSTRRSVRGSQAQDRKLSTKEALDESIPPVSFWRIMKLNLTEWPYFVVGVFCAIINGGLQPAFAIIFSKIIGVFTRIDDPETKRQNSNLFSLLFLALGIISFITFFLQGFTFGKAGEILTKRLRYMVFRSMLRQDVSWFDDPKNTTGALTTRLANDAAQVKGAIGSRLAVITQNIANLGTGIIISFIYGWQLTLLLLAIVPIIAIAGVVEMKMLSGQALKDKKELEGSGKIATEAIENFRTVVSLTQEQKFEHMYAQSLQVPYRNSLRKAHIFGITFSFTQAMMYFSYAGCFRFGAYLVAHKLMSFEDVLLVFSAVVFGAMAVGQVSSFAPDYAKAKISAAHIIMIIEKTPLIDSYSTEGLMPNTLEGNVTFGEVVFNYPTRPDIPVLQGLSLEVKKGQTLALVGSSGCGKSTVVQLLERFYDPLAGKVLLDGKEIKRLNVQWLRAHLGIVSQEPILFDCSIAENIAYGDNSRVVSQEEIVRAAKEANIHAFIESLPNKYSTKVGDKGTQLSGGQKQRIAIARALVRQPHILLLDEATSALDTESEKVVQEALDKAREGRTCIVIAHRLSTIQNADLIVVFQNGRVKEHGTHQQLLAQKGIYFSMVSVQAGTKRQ

SMILES: O=C1CC(=O)CC(/C=C/c2cc(C(F)(F)F)cc(C(F)(F)F)c2)C1 [Compound 6, (E)-5-(3,5-Bis(trifluoromethyl)styryl)cyclohexane-1,3-dione]
- EC50 Fold difference (HepG2 cells): >14
- viability at 24 h, 30 μM [1]: 91.9%
- viability at 48 h, 30 μM [1]: 94%
- EC50 at 24 h [1]: > 30 µM
- EC50 at 48 h [1]: > 30 µM
- viability at 24 h, 30 μM [2]: 82.6%
- viability at 48 h, 30 μM [2]: 89.6%
- EC50 at 24 h [2]: > 30 µM
- EC50 at 48 h [2]: > 30 µM
- Log Pe [3]: −5.07
- Papp at 18 h, 250 μM [3]: 8.46 ± 0.1 ×10⁻⁶ cm/s
- substrate for the P-gp transporter (P-gp): substrates
- Papp A→B at 120 min (P-gp): 10.6 ± 1.28 ×10⁻⁶ cm/s
- Papp B→A at 120 min (P-gp): 24.31 ± 0.18 ×10⁻⁶ cm/s
- efflux ratio at 120 min (P-gp): 2.29

SMILES: CC(C)(Oc1cc(C(F)(F)F)cc(C(F)(F)F)c1)C1CC(=O)CC(=O)C1 [Compound 20, 5-(2-(3,5-bis(trifluoromethyl)phenoxy)propan-2-yl)cyclohexane-1,3-dione]
- EC50 Fold difference (HepG2 cells): >11
- viability at 24 h, 30 μM [1]: 96%
- viability at 48 h, 30 μM [1]: 92.3%
- EC50 at 24 h [1]: > 30 µM
- EC50 at 48 h [1]: > 30 µM
- viability at 24 h, 30 μM [2]: 90%
- viability at 48 h, 30 μM [2]: 91.6%
- EC50 at 24 h [2]: > 30 µM
- EC50 at 48 h [2]: > 30 µM
- Log Pe [3]: −4.94
- Papp at 18 h, 250 μM [3]: 11.5 ± 0.66 ×10⁻⁶ cm/s
- substrate for the P-gp transporter (P-gp): substrates
- Papp A→B at 120 min (P-gp): 5.82 ± 0.06 ×10⁻⁶ cm/s
- Papp B→A at 120 min (P-gp): 14.7 ± 0.78 ×10⁻⁶ cm/s
- efflux ratio at 120 min (P-gp): 2.53
